Source: patent US12083105B2, “Compositions and methods for treating adult-onset neuronal ceroid lipofuscinosis (Kufs disease)” (CORNELL UNIVERSITY, priority 2020, dated 2024)

System: CSPα^WT, CSPα^L115R and CSPα^L116Δ
Test: Fe—S cluster disruption of purified recombinant CSPα oligomers (SDS-PAGE, immunoblotting)
Type: biochemical
Conditions: purified recombinant proteins; 1 mM, 2 h at room temperature; FIG. 2B
Protocol: FIGS. 2A-2F show dissociation of CSPα ANCL mutant protein oligomers by acid treatment. […] Purified recombinant CSPα^WT, CSPα^L115R CSPα^L116Δ, and SSPα proteins were incubated with either 1 mM L-cysteine for 2 h at room temperature (+L-Cys) or 0.1 N HCl for 20 min at room temperature (+HCl). The proteins were separated by SDS-PAGE, and resultant gels were subjected to immunoblotting using anti-CSPα antibody. A representative immunoblot is shown. Key: Mono=monomer; Oligo=oligomers of higher mass than dimer. Mono=monomer; Oligo=oligomers; grey arrowheads=possible dimer and tetramer. […] The proteins were subjected to increasing trypsin concentrations (0, 0.01, 0.05, 0.1, and 1.0 mg/ml) for 20 min at 4° C., followed by immediate inhibition of trypsin with addition of phenylmethylsulfonyl fluoride (PMSF) to 1 mM. After proteolysis was stopped, CSPα oligomers were disrupted with 0.1 N HCl for 20 min at room temperature, followed by 10 min of boiling in Laemmli sample buffer. The resultant proteins were separated by SDS-PAGE, and subjected to immunoblotting using anti-CSPα antibody. […] The proteins were first incubated with 0.1 N HCl for 20 min at room temperature and then neutralized with 1 M sodium cacodylate to pH 7.0. Limited proteolysis was then performed using increasing trypsin concentrations (0, 0.01, 0.05, 0.1, and 1.0 mg/ml) for 20 min at 4° C. […]

SMILES: N[C@@H](CS)C(=O)O [L-cysteine]
- disassembly of oligomers of CSPα^WT, CSPα^L115R and CSPα^L116Δ: no significant effect
